Assay results taken from PubChem BioAssay (NCI).
Several values for one entry are separate records, joined by “and”; a condition that tells them apart may be missing. Equal values may be shown once.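 Tested at 5 concentrations; 48 h exposure; 96-well plates; endpoints linearly interpolated, else capped at highest concentration. GI50 is the concentration that inhibits growth by half. At the TGI there is no net growth.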

Tests used:
Experiment in all cases: NCI-60 cell line screen, 48 h
PC-3 prostate = test system: PC-3 prostate
NCI-H522 lung = test system: NCI-H522 lung
BT-549 breast = test system: BT-549 breast
HOP-92 NSCLC = test system: HOP-92 NSCLC
HL-60(TB) leukemia = test system: HL-60(TB) leukemia
MALME-3M melanoma = test system: MALME-3M melanoma
CCRF-CEM leukemia = test system: CCRF-CEM leukemia
SK-MEL-28 melanoma = test system: SK-MEL-28 melanoma
K-562 leukemia = test system: K-562 leukemia
SN12C renal = test system: SN12C renal

| Compound | GI50 (PC-3 prostate) | TGI (PC-3 prostate) | GI50 (NCI-H522 lung) | TGI (NCI-H522 lung) | GI50 (BT-549 breast) | TGI (BT-549 breast) | GI50 (HOP-92 NSCLC) | TGI (HOP-92 NSCLC) | GI50 (HL-60(TB) leukemia) | TGI (HL-60(TB) leukemia) | GI50 (MALME-3M melanoma) | TGI (MALME-3M melanoma) | GI50 (CCRF-CEM leukemia) | TGI (CCRF-CEM leukemia) | GI50 (SK-MEL-28 melanoma) | TGI (SK-MEL-28 melanoma) | GI50 (K-562 leukemia) [µM] | TGI (K-562 leukemia) | GI50 (SN12C renal) | TGI (SN12C renal) |
| --- | --- | --- | --- | --- | --- | --- | --- | --- | --- | --- | --- | --- | --- | --- | --- | --- | --- | --- | --- | --- |
| C=CC(=O)N1CN(C(=O)C=C)CN(C(=O)C=C)C1 | 9.16 µM | 53.9 µM | 1.65 µM | 3.51 µM | 6.68 µM | 20.7 µM | 3.56 µM | 13 µM | 3.37 µM | 10.3 µM | 2.81 µM | 7.2 µM | 2.82 µM | 9.78 µM | 4.02 µM | 16.2 µM | 3.01 | 9.83 µM | 20.7 µM | 51.6 µM |
| COC(=O)C1=COC(C)C2CN3CCc4c([nH]c5ccccc45)C3CC12 (stereo not drawn) | 24 µM and > 100 µM | 95.2 µM and > 100 µM | 23.1 µM and 91.2 µM | 78.5 µM and > 100 µM | 28 µM and > 100 µM | > 100 µM | 18.3 µM and > 100 µM | 77.4 µM and > 100 µM | 17.5 µM and 46.1 µM | 41.7 µM and > 100 µM | 14.4 µM and 49.5 µM | 45.5 µM and > 100 µM | 20.1 µM and 50.5 µM | 58.5 µM and > 100 µM | 16.1 µM and > 100 µM | 41.8 µM and > 100 µM |  |  | 17.9 µM and > 100 µM | 38 µM and > 100 µM |
| Cc1ccc(OCCOCCOCCOCCOc2ccc(C)n(O)c2=S)c(=S)n1O | 0.0155 µM | > 100 µM | 0.0294 µM | > 79.7 µM | 0.52 µM | > 100 µM | 4.78 µM | > 90.8 µM | 0.11 µM | 5.95 µM | 0.0644 µM | > 52.7 µM | < 0.01 µM | > 100 µM | 0.356 µM | > 100 µM | < 0.01 | > 100 µM | 0.0266 µM | > 100 µM |
| CC(C)c1[nH]nc2c1N=C(c1ccccc1Cl)c1cc([N+](=O)[O-])ccc1N2 | 6.7 µM | > 25 µM | 2.29 µM | > 18.3 µM | 6.66 µM | > 22.1 µM | 4 µM | 12.6 µM | 4.99 µM | 12.2 µM | > 16.2 µM | > 25 µM | 5.34 µM | > 17.8 µM | 6.26 µM | > 25 µM | 1.98 | > 25 µM | 8.17 µM | > 25 µM |
| O=C(Nc1cc(Cl)ccc1O)c1ccc(Nc2ccnc(C(F)(F)F)c2)cc1 | 2.72 µM | 9.02 µM |  |  | 2.21 µM | 6.88 µM | 2.24 µM | 6.12 µM | 1.25 µM | 4.42 µM | 1.79 µM | 5.49 µM | 0.807 µM | 5.7 µM | 4.6 µM | > 100 µM | 2.89 | > 100 µM | 2.65 µM | 32 µM |
| O=C(Nc1cc(Nc2ncccc2-c2ncnc3nc[nH]c23)ccc1F)c1cc(C(F)(F)F)cc(C(F)(F)F)c1 | 2.34 µM | 5.19 µM | 2.38 µM | > 10 µM | 2.87 µM | 6.54 µM | 0.891 µM | 3.92 µM | 0.439 µM | 8.44 µM | 0.152 µM | 0.542 µM | 2.97 µM | > 10 µM | 0.34 µM | 1.68 µM | 0.4 | > 10 µM | 2.73 µM | > 10 µM |
| CCC/C=C/C=C/C1CC(O)C(O)C(=O)C1CO (stereo not drawn) |  | > 100 µM |  | > 100 µM |  | > 100 µM |  | > 100 µM |  | > 100 µM |  |  |  | > 100 µM |  | > 100 µM |  | > 100 µM |  | > 100 µM |
| Cn1c(=O)c2c(nc(C(=N)SCC(=O)O)n2C)n(C)c1=O |  | > 100 µM |  | > 100 µM |  | > 100 µM |  | > 100 µM |  | 52.8 µM |  | > 100 µM |  | 35.8 µM |  | > 100 µM |  | > 100 µM |  | > 100 µM |
| O=C1Nc2ccccc2/C1=C1\CCc2cc(O)ccc21 | 12.4 µM | > 25 µM | 9.85 µM | > 25 µM | 8.47 µM | > 24.2 µM | 5.93 µM | 22.8 µM | 6.65 µM | > 21.5 µM | 8.11 µM | > 25 µM | 7.19 µM | > 25 µM | 15.3 µM | > 25 µM | 9.09 | > 25 µM | 7.84 µM | > 25 µM |
| COc1ccc(/C(C)=C(\c2ccc(OCCN3CCCCCC3)cc2)c2ccc(OC(=O)C3CCCCC3)cc2)cc1 | 0.541 µM | 2.38 µM | 2.12 µM | 5.36 µM | 1.53 µM | 3.36 µM | 0.813 µM | 2.76 µM | 0.707 µM | 2.85 µM | 0.517 µM | 2.14 µM | 0.75 µM | 9.39 µM | 1.25 µM | 3.14 µM | 0.356 | 6.14 µM | 1.11 µM | 3.28 µM |
| COc1ccc(-c2nccn2-c2ccc(OC)cc2)cc1 | 24.9 µM | > 100 µM | 17 µM | 42.9 µM | 28.7 µM | > 94.5 µM | 2.45 µM | > 41.7 µM | 14.2 µM | 34.2 µM | 15.9 µM | 50.3 µM | 23.5 µM | 76.7 µM | 19.1 µM | 60.6 µM | 6.43 | 61.4 µM | 20.8 µM | 50.3 µM |
| c1ccc2c(c1)[nH]c1c2cc[n+]2cc3c(cc12)CCCC3 |  | 10.9 µM and 29 µM | 2.27 µM | 5.48 µM and 6.23 µM | 8.96 µM | 25.5 µM and 8.29 µM | 4.57 µM | 24.8 µM | 1.27 µM | 5.39 µM | 1.65 µM | 3.54 µM | 2.76 µM | 12.7 µM |  | 5.26 µM and 4.19 µM | 2.76 | 12.5 µM and 10.8 µM | 3.05 µM | 12.8 µM and 12.1 µM |
| ClC(Cl)=C1C(=C(Cl)Cl)C(Cl)(Cl)C1(Cl)Cl |  | 5.08 µM | 0.287 µM | 0.304 µM |  | 13.4 µM |  | 4.5 µM | 0.259 µM | 0.66 µM and 2.11 µM |  | 5.9 µM | 0.334 µM | 1.5 µM |  | 4.06 µM | 0.532 | 5.62 µM | 0.774 µM | 2.13 µM |
